In patent US20240398836A1, “EPOXY STEROIDS” (priority 2021, published 2024):

Assays:
Format in all cases: cell-based
Nalm-6 cells = assay: Inhibition of proliferation in leukemia cells (Nalm-6); conditions: Nalm-6, 24 h, concentration-dependent
Method: In leukemia cells (Nalm-6), cell proliferation is inhibited. After 24 h, 1×10^5 cells will have proliferated to almost threefold (2.97×10^5 cells), while cell proliferation is inhibited up to 100% in a concentration-dependent way by treatment with the steroid WIL 071, see FIG. 1. The experiments were performed in triplicate. The error bars show the standard deviations of the measured values of three independent experiments.

BiBo cells = assay: Apoptosis induction in polycytostatics-resistant BiBo cells vs BJAB; conditions: vincristine-resistant BJAB, Bcl-2 overexpression
Method: BiBo cells are lymphoma cells (BJAB cells) that have been made resistent against vincristine, and have a Bcl-2 overexpression as a resistence mechanism. They have co-resistences for the following cytostatics: • vincristine, vinblastine, vindesine, vinorelbin, taxol • cytarabin • daunorubicin.
The experiments were performed in triplicate. The error bars show the standard deviations of the measured values of three independent experiments. The steroid WIL 071 overcomes steroid resistence in lymphoma cells (BiBo cells).

[1] = test system: glioblastoma cells (DBTRG05MG cells); assay: Apoptosis in brain tumor cells
Method: In contrast to conventional glucocorticoids, the steroid WIL 071 can induce apoptosis also in brain tumor cells.
The DNA fragmentation was measured by flow cytometry, see FIG. 9. The experiments were performed in triplicate. The error bars show the standard deviations of the measured values of three independent experiments.

[2] = test system: primary glioblastoma cells of a patient; assay: Apoptosis in primary human glioblastoma cells; conditions: grade 4
Method: In contrast to conventional glucocorticoids, the steroid WIL 071 can induce apoptosis also in primary human brain tumor cells.
The DNA fragmentation was measured by flow cytometry, see FIG. 10. The experiments were performed in triplicate. The error bars show the standard deviations of the measured values of three independent experiments.

CC(C)CCC[C@@H](C)[C@H]1CC[C@H]2[C@@H]3[C@H]4OC[C@@]5(CC[C@H](O)C[C@]5(O)C4=O)[C@H]3CC[C@]12C [WIL-071, 3β,5α-dihydroxy-7β,19-epoxy-cholestan-6-one]
inhibition of cell proliferation (Nalm-6 cells): up to 100%
apoptosis induction in resistant BiBo cells compared with BJAB (BiBo cells): induces as much apoptosis as in the non-resistent lymphoma cells
apoptosis induction (DNA fragmentation) [1]: significantly induces apoptosis
apoptosis induction (DNA fragmentation) [2]: significantly induces apoptosis
